Laboratory results taken from ChEMBL document CHEMBL4359884, “Design, synthesis and biological evaluation of novel pleuromutilin derivatives possessing acetamine phenyl linker” (Eur J Med Chem, 2019).
In brackets after ≈: the same amount, converted by molar mass.

Tests used:
Type in all cases: functional
[1] = tested on: Escherichia coli; test: Antibacterial activity against Escherichia coli 9-1 assessed as bacterial growth inhibition incubated for 24 hrs by broth dilution method; conditions: 9-1, 24 h
[2] = tested on: Escherichia coli; test: Antibacterial activity against Escherichia coli ATCC 25922 assessed as bacterial growth inhibition incubated for 24 hrs by broth dilution method; conditions: ATCC 25922, 24 h
[3] = tested on: Staphylococcus aureus; test: Antibacterial activity against methicillin-resistant Staphylococcus aureus ATCC 43300 assessed as bacterial growth inhibition incubated for 24 hrs by broth dilution method; conditions: ATCC 43300, 24 h
[4] = tested on: Staphylococcus aureus; test: Antibacterial activity against Staphylococcus aureus ATCC 29213 assessed as bacterial growth inhibition incubated for 24 hrs by broth dilution method; conditions: ATCC 29213, 24 h
[5] = tested on: Staphylococcus aureus; test: Antibacterial activity against Staphylococcus aureus AD3 assessed as bacterial growth inhibition incubated for 24 hrs by broth dilution method; conditions: AD3, 24 h
[6] = tested on: Staphylococcus aureus; test: Bactericidal activity against methicillin-resistant Staphylococcus aureus ATCC 43300 assessed as reduction in colony forming unit at 4 times MIC incubated for 3 hrs followed by compound dilution with saline and then incubated for 20 hrs on MH agar plate by time-kill kinetics assay relative to control; design: scale not given: the % may be the effect or the level left
[7] = tested on: Staphylococcus aureus; test: Antibacterial against methicillin-resistant Staphylococcus aureus ATCC 43300 assessed as post antibiotic effect time at 2 times MIC incubated for 1 hr followed by compound washout and then incubated for 20 hrs onto MH agar plate
[8] = tested on: Staphylococcus aureus; test: Antibacterial against methicillin-resistant Staphylococcus aureus ATCC 43300 assessed as post antibiotic effect time at 4 times MIC incubated for 1 hr followed by compound washout and then incubated for 20 hrs onto MH agar plate
[9] = tested on: Staphylococcus aureus; test: Antibacterial against methicillin-resistant Staphylococcus aureus ATCC 43300 assessed as post antibiotic effect time at 2 times MIC incubated for 2 hrs followed by compound washout and then incubated for 20 hrs onto MH agar plate
[10] = tested on: Staphylococcus aureus; test: Bactericidal activity against methicillin-resistant Staphylococcus aureus ATCC 43300 assessed as reduction in colony forming unit at 4 times MIC incubated for 24 hrs followed by compound dilution with saline and then incubated for 20 hrs on MH agar plate by time-kill kinetics assay
[11] = tested on: Staphylococcus aureus; test: Antibacterial against methicillin-resistant Staphylococcus aureus ATCC 43300 assessed as post antibiotic effect time at 4 times MIC incubated for 2 hrs followed by compound washout and then incubated for 20 hrs onto MH agar plate
[12] = tested on: Staphylococcus aureus; test: Bactericidal activity against methicillin-resistant Staphylococcus aureus ATCC 43300 assessed as reduction in colony forming unit at 4 times MIC incubated for 3 hrs followed by compound dilution with saline and then incubated for 20 hrs on MH agar plate by time-kill kinetics assay
[13] = tested on: Staphylococcus aureus; test: Antibacterial activity against methicillin-resistant Staphylococcus aureus infected in neutropenic thigh infection ICR/Swiss mouse model assessed reduction in colony forming unit in thigh at 20 mg/kg, iv administered 2 hrs post infection and measured at 24 hrs after drug dosage
[14] = tested on: Staphylococcus aureus; test: Antibacterial activity against methicillin-resistant Staphylococcus aureus infected in systemic infection ICR mouse model assessed as animal survival rate at 30 mg/kg, iv relative to control

Compound	MIC [1] [µg/mL]	MIC [2] [µg/mL]	MIC [3] [µg/mL]	MIC [4] [µg/mL]	MIC [5] [µg/mL]	Activity [6] [%]	Time [7] [h]	Time [8] [h]	Time [9] [h]	Activity [10] [log10CFU/ml]	Time [11] [h]	Activity [12] [log10CFU/ml]	Activity [13] [log10CFU/ml]	Activity [14] [%]
C=C[C@]1(C)C[C@@H](OC(=O)CSc2ccccc2NC(=O)CN2CCN(c3ccccc3)CC2)[C@]2(C)[C@H](C)CC[C@]3(CCC(=O)[C@H]32)[C@@H](C)[C@@H]1O	> 32	> 32	0.25 (≈ 0.363 µM)	0.25 (≈ 0.363 µM)	0.25 (≈ 0.363 µM)									
C=C[C@]1(C)C[C@@H](OC(=O)CSc2ccccc2NC(=O)CN2CCN(c3ccc(C)cc3)CC2)[C@]2(C)[C@H](C)CC[C@]3(CCC(=O)[C@H]32)[C@@H](C)[C@@H]1O	> 32	> 32	> 8	> 8	> 8									
C=C[C@]1(C)C[C@@H](OC(=O)CSc2ccccc2NC(=O)CN2CCN(C)CC2)[C@]2(C)[C@H](C)CC[C@]3(CCC(=O)[C@H]32)[C@@H](C)[C@@H]1O	> 32	> 32	0.5 (≈ 0.799 µM)	0.5 (≈ 0.799 µM)	0.5 (≈ 0.799 µM)									
C=C[C@]1(C)C[C@@H](OC(=O)CSc2ccccc2NC(=O)CN2CCN(c3ccc(O)cc3)CC2)[C@]2(C)[C@H](C)CC[C@]3(CCC(=O)[C@H]32)[C@@H](C)[C@@H]1O	> 32	> 32	1 (≈ 1.42 µM)	1 (≈ 1.42 µM)	0.5 (≈ 0.71 µM)									
C=C[C@]1(C)C[C@@H](OC(=O)CSc2ccccc2NC(=O)CN(CC)CC)[C@]2(C)[C@H](C)CC[C@]3(CCC(=O)[C@H]32)[C@@H](C)[C@@H]1O	> 32	> 32	0.125 (≈ 0.209 µM)	0.125 (≈ 0.209 µM)	0.125 (≈ 0.209 µM)									
C=C[C@]1(C)C[C@@H](OC(=O)CSc2ccccc2NC(=O)CN2CCN(c3ccccc3OC)CC2)[C@]2(C)[C@H](C)CC[C@]3(CCC(=O)[C@H]32)[C@@H](C)[C@@H]1O	> 32	> 32	> 8	> 8	> 8									
C=C[C@]1(C)C[C@@H](OC(=O)CSc2ccccc2NC(=O)CN2CCN(c3cccc(O)c3)CC2)[C@]2(C)[C@H](C)CC[C@]3(CCC(=O)[C@H]32)[C@@H](C)[C@@H]1O	> 32	> 32	0.125 (≈ 0.178 µM)	0.25 (≈ 0.355 µM)	0.25 (≈ 0.355 µM)									
C=C[C@]1(C)C[C@@H](OC(=O)CSc2ccccc2NC(=O)CN2CCN(c3cccc(OC)c3)CC2)[C@]2(C)[C@H](C)CC[C@]3(CCC(=O)[C@H]32)[C@@H](C)[C@@H]1O	> 32	> 32	4 (≈ 5.57 µM)	> 8	1 (≈ 1.39 µM)									
C=C[C@]1(C)C[C@@H](OC(=O)CSc2ccccc2NC(=O)CN2CCC(O)CC2)[C@]2(C)[C@H](C)CC[C@]3(CCC(=O)[C@H]32)[C@@H](C)[C@@H]1O	> 32	> 32	0.125 (≈ 0.199 µM)	0.125 (≈ 0.199 µM)	0.25 (≈ 0.399 µM)									
C=C[C@]1(C)C[C@@H](OC(=O)CSc2ccccc2NC(=O)CN2CCN(c3ccccc3C)CC2)[C@]2(C)[C@H](C)CC[C@]3(CCC(=O)[C@H]32)[C@@H](C)[C@@H]1O	> 32	> 32	2 (≈ 2.85 µM)	4 (≈ 5.7 µM)	2 (≈ 2.85 µM)									
C=C[C@]1(C)C[C@@H](OC(=O)CSc2ccccc2NC(=O)CN2CCN(c3ccccc3Cl)CC2)[C@]2(C)[C@H](C)CC[C@]3(CCC(=O)[C@H]32)[C@@H](C)[C@@H]1O	> 32	> 32	8 (≈ 11.1 µM)	8 (≈ 11.1 µM)	8 (≈ 11.1 µM)									
C=C[C@]1(C)C[C@@H](OC(=O)CSc2ccccc2NC(=O)CN2CCN(c3cccc(Cl)c3)CC2)[C@]2(C)[C@H](C)CC[C@]3(CCC(=O)[C@H]32)[C@@H](C)[C@@H]1O	> 32	> 32	1 (≈ 1.38 µM)	1 (≈ 1.38 µM)	2 (≈ 2.77 µM)									
C=C[C@]1(C)C[C@@H](OC(=O)CSc2ccccc2NC(=O)CN2CCC(O)C2)[C@]2(C)[C@H](C)CC[C@]3(CCC(=O)[C@H]32)[C@@H](C)[C@@H]1O (some centres not stated)	> 32	> 32	0.125 (≈ 0.204 µM)	0.25 (≈ 0.408 µM)	0.25 (≈ 0.408 µM)									
C=C[C@]1(C)C[C@@H](OC(=O)CSc2ccccc2NC(=O)CN2CCN(c3cccc(C)c3)CC2)[C@]2(C)[C@H](C)CC[C@]3(CCC(=O)[C@H]32)[C@@H](C)[C@@H]1O	> 32	> 32	> 8	> 8	> 8									
C=C[C@]1(C)C[C@@H](OC(=O)CSc2ccccc2NC(=O)CN2CCN(c3ccc([N+](=O)[O-])cc3)CC2)[C@]2(C)[C@H](C)CC[C@]3(CCC(=O)[C@H]32)[C@@H](C)[C@@H]1O	> 32	> 32	2 (≈ 2.73 µM)	4 (≈ 5.46 µM)	2 (≈ 2.73 µM)									
C=C[C@]1(C)C[C@@H](OC(=O)CSc2ccccc2NC(=O)CN2CCN(c3ccccc3F)CC2)[C@]2(C)[C@H](C)CC[C@]3(CCC(=O)[C@H]32)[C@@H](C)[C@@H]1O	> 32	> 32	2 (≈ 2.83 µM)	8 (≈ 11.3 µM)	1 (≈ 1.42 µM)									
C=C[C@]1(C)C[C@@H](OC(=O)CSc2ccccc2NC(=O)CN2CCN(c3cccc([N+](=O)[O-])c3)CC2)[C@]2(C)[C@H](C)CC[C@]3(CCC(=O)[C@H]32)[C@@H](C)[C@@H]1O	> 32	> 32	4 (≈ 5.46 µM)	4 (≈ 5.46 µM)	4 (≈ 5.46 µM)									
C=C[C@]1(C)C[C@@H](OC(=O)CSc2ccccc2NC(=O)CN2CCN(c3ccccc3O)CC2)[C@]2(C)[C@H](C)CC[C@]3(CCC(=O)[C@H]32)[C@@H](C)[C@@H]1O	> 32	> 32	1 (≈ 1.42 µM)	2 (≈ 2.84 µM)	0.5 (≈ 0.71 µM)									
C=C[C@]1(C)C[C@@H](OC(=O)CSc2ccccc2NC(=O)CN2CCN(c3ccccc3[N+](=O)[O-])CC2)[C@]2(C)[C@H](C)CC[C@]3(CCC(=O)[C@H]32)[C@@H](C)[C@@H]1O	> 32	> 32	4 (≈ 5.46 µM)	> 8	> 8									
C=C[C@]1(C)C[C@@H](OC(=O)CSc2ccccc2NC(=O)CN2CCCC2)[C@]2(C)[C@H](C)CC[C@]3(CCC(=O)[C@H]32)[C@@H](C)[C@@H]1O	> 32	> 32	0.25 (≈ 0.419 µM)	0.125 (≈ 0.209 µM)	0.125 (≈ 0.209 µM)									
C=C[C@]1(C)C[C@@H](OC(=O)CSc2ccccc2NC(=O)CN2CCN(c3ccc(OC)cc3)CC2)[C@]2(C)[C@H](C)CC[C@]3(CCC(=O)[C@H]32)[C@@H](C)[C@@H]1O	> 32	> 32	2 (≈ 2.79 µM)	4 (≈ 5.57 µM)	0.5 (≈ 0.696 µM)									
C=C[C@]1(C)C[C@@H](OC(=O)CSCCN(CC)CC)[C@]2(C)[C@H](C)CC[C@]3(CCC(=O)[C@H]32)[C@@H](C)[C@@H]1O [TIAMULIN]			0.5 (≈ 1.01 µM)	1 (≈ 2.03 µM)	0.5 (≈ 1.01 µM)	97	1.53	1.9	1.65	1.9	2.04	1.54	0.59	20
